{
  "source": "paper PMC5218480",
  "about": "(PLoS ONE, 2017)",
  "system": "MV-4-11 cells",
  "assay": "Gene expression microarray analysis (Affymetrix PrimeView) and GSEA",
  "assay_type": "cell-based, human",
  "set-up": "RFU PODN (11730768_x_at) / Fold change /veh PODN (11730768_x_at) / RFU LINC00158 (11744669_a_at) / Fold change /veh LINC00158 (11744669_a_at) / RFU DUSP10 (11751237_a_at) / Fold change /veh DUSP10 (11751237_a_at) / RFU ID3 (11757404_x_at) / Fold change /veh ID3 (11757404_x_at) / RFU PLEKHG5 (11737974_s_at) / Fold change /veh PLEKHG5 (11737974_s_at) / RFU LRRC4B (11730491_at) / Fold change /veh LRRC4B (11730491_at) / RFU GIMAP4 (11747438_a_at) / Fold change /veh GIMAP4 (11747438_a_at) / RFU KRT8 (11758183_x_at) / Fold change /veh KRT8 (11758183_x_at) / RFU CNN1 (11734310_a_at) / Fold change /veh CNN1 (11734310_a_at) / RFU VPS37D (11726825_at) / Fold change /veh VPS37D (11726825_at) / RFU C10orf10 (11716522_x_at) / Fold change /veh C10orf10 (11716522_x_at) / RFU KIR2DL2 /// KIR2DL4 /// KIR2DL5A /// KIR2DL5B /// KIR2DS1 /// KIR2DS2 /// KIR2DS3 /// KIR2DS4 /// KIR3DL3 /// KIR3DL3 /// KIR3DS1 (11738374_at) / Fold change /veh KIR2DL2 /// KIR2DL4 /// KIR2DL5A /// KIR2DL5B /// KIR2DS1 /// KIR2DS2 /// KIR2DS3 /// KIR2DS4 /// KIR3DL3 /// KIR3DL3 /// KIR3DS1 (11738374_at) / RFU C1QL1 (11718748_at) / Fold change /veh C1QL1 (11718748_at) / RFU TMPRSS4 (11747572_a_at) / Fold change /veh TMPRSS4 (11747572_a_at) / RFU HAMP (11756126_x_at) / Fold change /veh HAMP (11756126_x_at) / RFU RNFT2 (11725882_a_at) / Fold change /veh RNFT2 (11725882_a_at) / RFU NR4A2 (11747474_a_at) / Fold change /veh NR4A2 (11747474_a_at) / RFU ABCC12 (11746883_a_at) / Fold change /veh ABCC12 (11746883_a_at) / RFU TMEM136 (11760407_x_at) / Fold change /veh TMEM136 (11760407_x_at) / RFU CLDN22 /// WWC2 (11732394_at) / Fold change /veh CLDN22 /// WWC2 (11732394_at) / RFU HLA-DPB1 (11760878_x_at) / Fold change /veh HLA-DPB1 (11760878_x_at) / RFU SPINT1 (11716480_a_at) / Fold change /veh SPINT1 (11716480_a_at) / RFU GAP43 (11754022_s_at) / Fold change /veh GAP43 (11754022_s_at) / RFU A4GNT (11735810_at) / Fold change /veh A4GNT (11735810_at) / RFU PRB3 (11715151_x_at) / Fold change /veh PRB3 (11715151_x_at) / RFU TUBB4B (11761932_at) / Fold change /veh TUBB4B (11761932_at) / RFU CAPN14 (11732068_a_at) / Fold change /veh CAPN14 (11732068_a_at) / RFU TMCC2 (11721928_a_at) / Fold change /veh TMCC2 (11721928_a_at) / RFU IRGQ (11745062_a_at) / Fold change /veh IRGQ (11745062_a_at) / RFU FAM174B (11720279_a_at) / Fold change /veh FAM174B (11720279_a_at) / RFU TMPRSS4 (11748680_a_at) / Fold change /veh TMPRSS4 (11748680_a_at) / RFU FAM212B (11763350_a_at) / Fold change /veh FAM212B (11763350_a_at) / RFU PLEKHG5 (11743358_a_at) / Fold change /veh PLEKHG5 (11743358_a_at) / RFU ZSCAN30 (11745921_a_at) / Fold change /veh ZSCAN30 (11745921_a_at) / RFU CMKLR1 (11741424_a_at) / Fold change /veh CMKLR1 (11741424_a_at) / RFU LOC101060620 /// MAPK8IP1 (11723275_at) / Fold change /veh LOC101060620 /// MAPK8IP1 (11723275_at) / RFU SPTSSB (11747773_x_at) / Fold change /veh SPTSSB (11747773_x_at) / RFU PRSS12 (11739890_at) / Fold change /veh PRSS12 (11739890_at) / RFU BIN1 (11741810_x_at) / Fold change /veh BIN1 (11741810_x_at) / RFU WNT11 (11732464_a_at) / Fold change /veh WNT11 (11732464_a_at) / RFU C10orf10 (11716521_a_at) / Fold change /veh C10orf10 (11716521_a_at) / RFU C5orf56 (11738089_at) / Fold change /veh C5orf56 (11738089_at) / RFU CYB561 (11721691_x_at) / Fold change /veh CYB561 (11721691_x_at) / RFU ANKRD19P (11752326_a_at) / Fold change /veh ANKRD19P (11752326_a_at) / RFU OR2T12 /// OR2T33 /// OR2T8 (11738714_s_at) / Fold change /veh OR2T12 /// OR2T33 /// OR2T8 (11738714_s_at) / RFU VCAN (11748164_a_at) / Fold change /veh VCAN (11748164_a_at) / RFU JSRP1 (11732532_at) / Fold change /veh JSRP1 (11732532_at) / RFU KRTAP10-11 (11738290_x_at) / Fold change /veh KRTAP10-11 (11738290_x_at) / RFU MYO3A (11730013_a_at) / Fold change /veh MYO3A (11730013_a_at) / RFU EBF3 (11725865_a_at) / Fold change /veh EBF3 (11725865_a_at) / RFU CAMK2N1 (11719241_x_at) / Fold change /veh CAMK2N1 (11719241_x_at) / RFU C5orf56 (11738088_a_at) / Fold change /veh C5orf56 (11738088_a_at) / RFU OLFML3 (11715873_a_at) / Fold change /veh OLFML3 (11715873_a_at) / RFU LOC100653217 /// NTM (11731650_a_at) / Fold change /veh LOC100653217 /// NTM (11731650_a_at) / RFU MAPK11 (11762145_a_at) / Fold change /veh MAPK11 (11762145_a_at) / RFU FIZ1 (11724087_x_at) / Fold change /veh FIZ1 (11724087_x_at) / RFU OASL (11726364_x_at) / Fold change /veh OASL (11726364_x_at) / RFU SOX15 (11748057_x_at) / Fold change /veh SOX15 (11748057_x_at) / RFU CD79A (11719716_a_at) / Fold change /veh CD79A (11719716_a_at) / RFU HIST1H1D (11736915_at) / Fold change /veh HIST1H1D (11736915_at) / RFU CASKIN2 (11723855_a_at) / Fold change /veh CASKIN2 (11723855_a_at) / RFU LOC730098 (11760151_x_at) / Fold change /veh LOC730098 (11760151_x_at) / RFU OR4N2 (11742367_at) / Fold change /veh OR4N2 (11742367_at) / RFU PRRT2 (11749266_a_at) / Fold change /veh PRRT2 (11749266_a_at) / RFU SNX32 (11753110_a_at) / Fold change /veh SNX32 (11753110_a_at) / RFU CDHR5 (11726645_a_at) / Fold change /veh CDHR5 (11726645_a_at) / RFU RCAN1 (11760418_a_at) / Fold change /veh RCAN1 (11760418_a_at) / RFU FAM167A (11723789_a_at) / Fold change /veh FAM167A (11723789_a_at) / RFU FAM26E (11764081_at) / Fold change /veh FAM26E (11764081_at) / RFU ISYNA1 (11749810_s_at) / Fold change /veh ISYNA1 (11749810_s_at) / RFU ACY1 (11761880_at) / Fold change /veh ACY1 (11761880_at) / RFU 11764098_at / Fold change /veh 11764098_at / RFU SAMD14 (11745864_x_at) / Fold change /veh SAMD14 (11745864_x_at) / RFU NPB (11741838_a_at) / Fold change /veh NPB (11741838_a_at) / RFU TMPRSS6 (11731388_a_at) / Fold change /veh TMPRSS6 (11731388_a_at) / RFU KRTAP10-2 (11738614_at) / Fold change /veh KRTAP10-2 (11738614_at) / RFU ARHGAP8 /// PRR5-ARHGAP8 (11727945_x_at) / Fold change /veh ARHGAP8 /// PRR5-ARHGAP8 (11727945_x_at) / RFU KRTAP5-7 /// NADSYN1 (11734609_at) / Fold change /veh KRTAP5-7 /// NADSYN1 (11734609_at) / RFU RASL12 (11751679_a_at) / Fold change /veh RASL12 (11751679_a_at) / RFU CDKN2B (11736163_a_at) / Fold change /veh CDKN2B (11736163_a_at) / RFU PRF1 (11729649_at) / Fold change /veh PRF1 (11729649_at) / RFU, ZNF638 /// ZNF638-IT1 / Fold change vs veh, ZNF638 /// ZNF638-IT1 / RFU, PANK3 / Fold change vs veh, PANK3 / RFU, SH3YL1 / Fold change vs veh, SH3YL1 / RFU, ZEB2 / Fold change vs veh, ZEB2 / RFU, NRIP1 / Fold change vs veh, NRIP1 / RFU, PTTG1IP / Fold change vs veh, PTTG1IP / RFU, CAPN2 / Fold change vs veh, CAPN2 / RFU, MED14 / Fold change vs veh, MED14 / RFU, SNORA58 / Fold change vs veh, SNORA58 / RFU, C1orf63 / Fold change vs veh, C1orf63 / RFU, LRRFIP1 / Fold change vs veh, LRRFIP1 / RFU, NDUFAF7 / Fold change vs veh, NDUFAF7 / RFU, SLC12A2 / Fold change vs veh, SLC12A2 / RFU, IBTK / Fold change vs veh, IBTK / RFU, ESF1 / Fold change vs veh, ESF1 / Fold change vs veh, TMEM50B / RFU, TAOK1 / Fold change vs veh, TAOK1 / RFU, ACBD3 / Fold change vs veh, ACBD3 / RFU, TMA16 / Fold change vs veh, TMA16 / RFU, RWDD3 / Fold change vs veh, RWDD3 / RFU, BCAT1 / Fold change vs veh, BCAT1 / RFU, EDEM3 / Fold change vs veh, EDEM3 / RFU, TMEM33 / Fold change vs veh, TMEM33 / RFU, WDR75 / Fold change vs veh, WDR75 / RFU, AHCTF1 / Fold change vs veh, AHCTF1 / RFU, TFRC / Fold change vs veh, TFRC / RFU, ZDHHC17 / Fold change vs veh, ZDHHC17 / RFU, NOM1 / Fold change vs veh, NOM1 / RFU, ARL8B / Fold change vs veh, ARL8B / RFU, ZBTB11 / Fold change vs veh, ZBTB11 / RFU, TAMM41 / Fold change vs veh, TAMM41 / RFU, KIAA1704 /// LOC100996395 / Fold change vs veh, KIAA1704 /// LOC100996395 / RFU, ING1 / Fold change vs veh, ING1 / RFU, TRMT61B / Fold change vs veh, TRMT61B / RFU, FUBP3 / Fold change vs veh, FUBP3 / RFU, TP53 / Fold change vs veh, TP53 / RFU, TNKS2 / Fold change vs veh, TNKS2 / RFU, ZFP14 / Fold change vs veh, ZFP14 / RFU, ACTR2 / Fold change vs veh, ACTR2 / RFU, PPP3R1 / Fold change vs veh, PPP3R1 / RFU, PIK3R1 / Fold change vs veh, PIK3R1 / RFU, HNRNPA1 / Fold change vs veh, HNRNPA1 / RFU, RNF170 / Fold change vs veh, RNF170 / RFU, ZNF28 / Fold change vs veh, ZNF28 / RFU, RNGTT / Fold change vs veh, RNGTT / RFU, OGT / Fold change vs veh, OGT / RFU, BRD1 / Fold change vs veh, BRD1 / RFU, MARS / Fold change vs veh, MARS / RFU, ZNF655 / Fold change vs veh, ZNF655 / RFU, FAHD1 / Fold change vs veh, FAHD1 / RFU, BDP1 / Fold change vs veh, BDP1 / RFU, LRRCC1 / Fold change vs veh, LRRCC1 / RFU, ARID1A / Fold change vs veh, ARID1A / RFU, ZNF146 / Fold change vs veh, ZNF146 / RFU, ZNF330 / Fold change vs veh, ZNF330 / RFU, GPN3 / Fold change vs veh, GPN3 / RFU, C9orf123 / Fold change vs veh, C9orf123 / RFU, N4BP2L2 / Fold change vs veh, N4BP2L2 / RFU, ARFIP1 / Fold change vs veh, ARFIP1 / RFU, FAM179B / Fold change vs veh, FAM179B / RFU, BCL10 / Fold change vs veh, BCL10 / RFU, UHRF1BP1L / Fold change vs veh, UHRF1BP1L / RFU, BET1 / Fold change vs veh, BET1 / RFU, CNOT2 / Fold change vs veh, CNOT2 / RFU, ZNF268 / Fold change vs veh, ZNF268 / Fold change vs veh, ZNF507 / RFU, DGCR2 / Fold change vs veh, DGCR2 / RFU, WDSUB1 / Fold change vs veh, WDSUB1 / Fold change vs veh, HSP90B1 /// MIR3652 / RFU, ADSS / Fold change vs veh, ADSS / RFU, GK / Fold change vs veh, GK / RFU, ZNF148 / Fold change vs veh, ZNF148 / RFU, TAF9 / Fold change vs veh, TAF9 / RFU, SLC1A5 / Fold change vs veh, SLC1A5 / RFU, SLMO2 / Fold change vs veh, SLMO2 / RFU, ABCC4 / Fold change vs veh, ABCC4 / RFU, LOC101060439 /// RAP1B / Fold change vs veh, LOC101060439 /// RAP1B / RFU, RFX7 / Fold change vs veh, RFX7 / RFU, GTPBP10 / Fold change vs veh, GTPBP10 / RFU, CNEP1R1 / Fold change vs veh, CNEP1R1 / RFU, BIVM-ERCC5 /// ERCC5 / Fold change vs veh, BIVM-ERCC5 /// ERCC5 / RFU, ILF3 / Fold change vs veh, ILF3 / RFU 11762660_at / Fold change /veh 11762660_at / RFU VCAN (11757783_s_at) / Fold change /veh VCAN (11757783_s_at) / RFU DDX43 (11728927_at) / Fold change /veh DDX43 (11728927_at) / RFU KRT8 (11758188_x_at) / Fold change /veh KRT8 (11758188_x_at) / RFU NKD1 (11759106_at) / Fold change /veh NKD1 (11759106_at) / RFU SRD5A1 (11742802_a_at) / Fold change /veh SRD5A1 (11742802_a_at) / RFU TPSAB1 /// TPSB2 (11721975_s_at) / Fold change /veh TPSAB1 /// TPSB2 (11721975_s_at) / RFU GSTM3 (11746129_a_at) / Fold change /veh GSTM3 (11746129_a_at) / RFU IL23R (11737362_x_at) / Fold change /veh IL23R (11737362_x_at) / RFU TMEM51 (11727254_a_at) / Fold change /veh TMEM51 (11727254_a_at) / RFU PIWIL2 (11732686_x_at) / Fold change /veh PIWIL2 (11732686_x_at) / RFU ORM1 (11744905_x_at) / Fold change /veh ORM1 (11744905_x_at) / RFU CCDC152 (11743942_at) / Fold change /veh CCDC152 (11743942_at) / RFU ECM1 (11717891_a_at) / Fold change /veh ECM1 (11717891_a_at) / RFU IL23R (11748794_a_at) / Fold change /veh IL23R (11748794_a_at) / RFU TNFAIP8L3 (11732012_x_at) / Fold change /veh TNFAIP8L3 (11732012_x_at) / RFU MBOAT4 (11741988_at) / Fold change /veh MBOAT4 (11741988_at) / RFU 11764193_at / Fold change /veh 11764193_at / RFU TMEM53 (11763286_at) / Fold change /veh TMEM53 (11763286_at) / RFU MAGEB2 (11727129_at) / Fold change /veh MAGEB2 (11727129_at) / RFU TMEM200A (11744735_a_at) / Fold change /veh TMEM200A (11744735_a_at) / RFU CCDC152 (11751479_a_at) / Fold change /veh CCDC152 (11751479_a_at) / RFU FAM211A (11726209_a_at) / Fold change /veh FAM211A (11726209_a_at) / RFU RGS16 (11746705_a_at) / Fold change /veh RGS16 (11746705_a_at) / RFU VCAN (11755009_s_at) / Fold change /veh VCAN (11755009_s_at) / RFU RHOB (11743442_s_at) / Fold change /veh RHOB (11743442_s_at) / RFU RGS16 (11720943_a_at) / Fold change /veh RGS16 (11720943_a_at) / RFU RGS16 (11720944_at) / Fold change /veh RGS16 (11720944_at) / RFU, VPS4B / Fold change vs veh, VPS4B / RFU, CREB1 / Fold change vs veh, CREB1 / RFU, DNAJC13 / Fold change vs veh, DNAJC13 / RFU, GNAQ / Fold change vs veh, GNAQ / RFU, CDK5R1 / Fold change vs veh, CDK5R1 / RFU, ZRANB3 / Fold change vs veh, ZRANB3 / RFU, CUL4A / Fold change vs veh, CUL4A / RFU, CCNY / Fold change vs veh, CCNY / RFU, UFL1 / Fold change vs veh, UFL1 / RFU, COG3 / Fold change vs veh, COG3 / RFU, DIAPH2 / Fold change vs veh, DIAPH2 / RFU, SKA2 / Fold change vs veh, SKA2 / RFU, AFF3 / Fold change vs veh, AFF3 / RFU, LMF1 / Fold change vs veh, LMF1 / RFU, IPO11 / Fold change vs veh, IPO11 / RFU, DFFB / Fold change vs veh, DFFB / RFU, FOXP1 / Fold change vs veh, FOXP1 / RFU, CARD8 / Fold change vs veh, CARD8 / RFU, STRN3 / Fold change vs veh, STRN3 / RFU, ADK / Fold change vs veh, ADK / RFU, RASSF2 / Fold change vs veh, RASSF2 / RFU, WIPF1 / Fold change vs veh, WIPF1 / RFU, LARP1B / Fold change vs veh, LARP1B / RFU, RASA1 / Fold change vs veh, RASA1 / RFU, RB1 / Fold change vs veh, RB1 / RFU, PPFIA1 / Fold change vs veh, PPFIA1 / RFU, MAT2A / Fold change vs veh, MAT2A / RFU, CCT5 / Fold change vs veh, CCT5 / RFU, WDR92 / Fold change vs veh, WDR92 / RFU, CUX1 / Fold change vs veh, CUX1 / RFU, TTC7A / Fold change vs veh, TTC7A / RFU, TMEM135 / Fold change vs veh, TMEM135 / RFU, DEPTOR / Fold change vs veh, DEPTOR / RFU, CPM / Fold change vs veh, CPM / RFU, DNAJB6 / Fold change vs veh, DNAJB6 / RFU, CACNA2D3 / Fold change vs veh, CACNA2D3 / RFU, DTX4 / Fold change vs veh, DTX4 / RFU, TFCP2 / Fold change vs veh, TFCP2 / RFU, GMCL1 /// GMCL1P1 / Fold change vs veh, GMCL1 /// GMCL1P1 / RFU, AEBP2 / Fold change vs veh, AEBP2 / RFU, SNHG1 /// SNORD22 /// SNORD25 /// SNORD26 /// SNORD27 /// SNORD28 /// SNORD29 /// SNORD31 / Fold change vs veh, SNHG1 /// SNORD22 /// SNORD25 /// SNORD26 /// SNORD27 /// SNORD28 /// SNORD29 /// SNORD31 / Fold change (Aza/veh), C12orf56 (ProbeSet 11735607_a_at) / Fold change (ACY-1035/veh), C12orf56 (ProbeSet 11735607_a_at) / Fold change (Aza/veh), FGFR1OP (ProbeSet 11751329_s_at) / Fold change (ACY-1035/veh), FGFR1OP (ProbeSet 11751329_s_at) / Fold change (Aza/veh), VPS36 (ProbeSet 11739960_a_at) / Fold change (ACY-1035/veh), VPS36 (ProbeSet 11739960_a_at) / RFU SYPL1 (11715823_x_at) / Fold change /veh SYPL1 (11715823_x_at) / RFU IGFBP7 (11715501_s_at) / Fold change /veh IGFBP7 (11715501_s_at) / RFU REEP3 (11722064_at) / Fold change /veh REEP3 (11722064_at) / RFU IGLL1 (11728026_x_at) / Fold change /veh IGLL1 (11728026_x_at): dose or concentration left out as unconfirmed",
  "settings": "ProbeSet 11720269_a_at; LIST B",
  "data": [
    {"smiles": "Nc1ncn([C@@H]2O[C@H](CO)[C@@H](O)[C@H]2O)c(=O)n1", "note": "[azacitidine]", "values": [
      {"measurement": "RFU, IBTK", "result": 763.53, "unit": "RFU"}
    ]}
  ]
}
